Source: US8455510B2
Where “and” joins values, the source holds several entries; their conditions need not be identical. Equal entries are not always repeated. Where two headings read alike, the source gives them in different places.

What was measured:
[1] = Distribution profile of prototype drug and rapamycin in plasma, liver and tumor of nude mice (LC-MS); assay type: in vivo; design: AUC0-t (ng · h/g or ng · h/ml): concentration or dose not given beside the values; details: for concentration at 0.5 h / concentration at 2 h / concentration at 5 h: nude, mouse; for AUC0-t (ng · h/g or ng · h/ml): substance determined: Sirolimus
[2] = system: normal mouse spleen T lymphocytes induced by ConA; test: 3H-TdR incorporation, ConA-induced T lymphocyte proliferation; assay type: cell-based, BALB/c mice; details: ConA 5 μg/ml, 48 hours, 3H-TdR, read-out: IC50, proliferation of T lymphocytes induced by ConA
Experimental: ^3H-thymidine incorporation was adopted to measure the effect of the in vitro administered compound on the proliferation function of the spleen lymphocytes of normal mice induced by a mixed culture of mitogen/allogeneic mouse spleen lymphocytes, and evaluate the in vitro immunosuppressive activity of the compound.
Measurement of the effects of compounds on the proliferation function of mouse spleen lymphocytes induced by mitogen by ^3H-TdR incorporation: 100 μl cell suspension of mouse spleen lymphocytes was inoculated on a 96-well plate (4×10^5 per well), followed by addition of 50 μl of ConA (final concentration: 5 μg/ml), 50 μl of LPS (final concentration: […]) or 50 μl of compound at different concentrations. The total volume of each well was 200 μl. The test was carried out in triplicate wells for each concentration, and included control wells without ConA/LPS or the compound. After the 96-well plate was placed in an incubator at 37° C. with 5% CO2 for 48 hours, 25 μl of ^3H-thymidine (10 μCi/ml) was added in each well 8 hours before the end of incubation. […] The amount of ^3H-TdR incorporated in cell DNA was determined by a Beta cell counter (MicroBeta Trilux, PerkinElmer), and the cell proliferation was represented as a cpm value.

[3] = system: SRBC-induced specific antibody-producing cells in spleen lymphocytes; test: Quantitative hemolysis of sheep red blood cells (QHS) assay; assay type: in vivo, BALB/c mice; details: 1.5 mg/kg, intraperitoneal injection
Description: It is a classic experimental method to determine the generation of antigen-specific antibody with SRBC hemolytic reaction in SRBC-induced mouse humoral immunity model. The quantitative hemolysis of sheep red blood cells (QHS) assay is an experimental method for evaluating the amount of the antibody secreted, which is based on the principle that the sheep red blood cells are hemolyzed by the anti-SRBC specific antibody secreted by B lymphocytes (plasma cells) to release haemoglobin. After mice are sensitized by sheep red blood cells (SRBC), there will appear cells which can secrete specific antibody in mouse spleen lymphocytes. The Antibody secreted by such cells could hemolyze SRBC with the synergistic action of the complement. Therefore, the amount of the cells secreting the specific antibody can be evaluated by determining the hemolytic degree by spectrophotometry. […] BALB/c mice were randomly divided into 5 groups with 6 mice in each group. […] When immunized, the mice in each group were administered by intraperitoneal injection once daily until 5 days after the immunization. The mice in model control group were administered daily with the solvent. 2. […] Each mice was introperitoneally injected with 0.2 ml of the diluted SRBC for sensitizing. 3. QHS assay was carried out 5 days after the sensitization: The mouse spleen was collected to produce the spleen lymphocytes. […] The mixture was kept at 37° C. for 1 hour, and then centrifugated at 3000 rpm for 10 min. […] The quantitative hemolysis of sheep red blood cells (QHS) assay uses the amount of haemoglobin (OD value) released from the hemolysis of red blood cells by the antibody secreted by B cells to indicate the level of humoral immunity in body. Inhibition of specific antibody-secreting cells %=(OD of model control group-OD of administration group)/(OD of model control group-OD of normal control group)

[4] = system: allogeneic antigen-induced mouse spleen lymphocytes; test: Mixed lymphocyte culture, 3H-TdR incorporation; assay type: cell-based, C57BL/6 and BALB/C mice
Experimental: Preparation of Stimulator Cells: a Cell Suspension of Balb/C Mouse Spleen Lymphocytes was irradiated by cesium 137 at 3000 Rads using a Gamma radiometer (Gammacell 3000) to make the cells lose their proliferation ability. After washed by RPMI-1640 for 2 times, the cell concentration was adjusted to 5×10^6/ml.
Preparation of responder cells: C57BL/6 mouse spleen lymphocytes were used as the responder cells, and the cell concentration was 5×10^6/ml.
Mixed lymphocyte culture: 50 μl cell suspension of C57BL/6 mouse spleen lymphocytes was inoculated on a 96-well plate, and 50 μl cell suspension of BALB/C mouse spleen lymphocytes treated by cesium 137 was added therein, followed by addition of 50 μl compound at different concentrations. The total volume for each well was 200 μl. If the total volume was less than 200 μl, it was supplemented with RMPI-1640 medium. The tests were divided into 3 groups, i.e., BALB/C mouse group, C57BL/6 mouse group and BALB/C and C57BL/6 mice mixed culture group. The test was carried out in triplicate wells for each concentration, and included control wells without the compound, with only the stimulator cells and with only the responder cells. The 96-well plate was incubated in an incubator at 37° C. with 5% CO2 for 3 to 5 days. 8 hours before the end of incubation, 25 μl of ^3H-thymidine (10 μCi/ml) was added in each well. After the incubation was completed, cells were harvested by a cell harvester on a glass fiber film. After addition of a scintillation fluid, the amount of ^3H-TdR incorporated in cell DNA was determined by a Beta cell counter (MicroBeta Trilux, PerkinElmer), and the cell proliferation was represented as a cpm value.

[5] = 0.5 h after administration, individual animals
[6] = 2.0 h after administration, individual animals
[7] = 5.0 h after administration, individual animals
[8] = 12 h after administration, individual animals
[9] = 48 h after administration, individual animals

CO[C@H]1C[C@@H]2CC[C@@H](C)[C@@](O)(O2)C(=O)C(=O)N2CCCC[C@H]2C(=O)O[C@H]([C@H](C)C[C@@H]2CC[C@@H](OC(=O)OCC(O)CO)[C@H](OC)C2)CC(=O)[C@H](C)/C=C(\C)[C@@H](O)[C@@H](OC)C(=O)[C@H](C)C[C@H](C)/C=C/C=C/C=C/1C (stereo partly shown) [Y31]
Y31 (prototype) concentration, Blood Plasma [1, 5]: 2.47 ng/mL and 3.03 ng/mL | Y31 (prototype) concentration, Liver [1, 5]: 14.3 ng/g and 6.24 ng/g and 8.61 ng/g | Y31 (prototype) concentration, Tumor [1, 5]: BLQ (BLQ: below the limit of Quantitation, 0.2 ng/ml (blood plasma); 1.0 ng/g(tissue)) | Y31 (prototype) concentration, Blood Plasma [1, 6]: 0.70 ng/mL and 0.58 ng/mL and 0.20 ng/mL | Y31 (prototype) concentration, Liver [1, 6]: 13.4 ng/g and 17.4 ng/g | Y31 (prototype) concentration, Tumor [1, 6]: BLQ (BLQ: below the limit of Quantitation, 0.2 ng/ml (blood plasma); 1.0 ng/g(tissue)) | Y31 (prototype) concentration, Blood Plasma [1, 7]: BLQ (BLQ: below the limit of Quantitation, 0.2 ng/ml (blood plasma)) | Y31 (prototype) concentration, Liver [1, 7]: 0.88 ng/g and 0.91 ng/g and 2.16 ng/g | Y31 (prototype) concentration, Tumor [1, 7]: BLQ (BLQ: below the limit of Quantitation, 0.2 ng/ml (blood plasma); 1.0 ng/g(tissue)) | Y31 (prototype) concentration, Blood Plasma [1, 8]: BLQ (BLQ: below the limit of Quantitation, 0.2 ng/ml (blood plasma)) | Y31 (prototype) concentration, Liver [1, 8]: BLQ (BLQ: below the limit of Quantitation, 0.2 ng/ml (blood plasma); 1.0 ng/g(tissue)) | Y31 (prototype) concentration, Tumor [1, 8]: BLQ (BLQ: below the limit of Quantitation, 0.2 ng/ml (blood plasma); 1.0 ng/g(tissue)) | Y31 (prototype) concentration, Blood Plasma [1, 9]: BLQ (BLQ: below the limit of Quantitation, 0.2 ng/ml (blood plasma)) | Y31 (prototype) concentration, Liver [1, 9]: BLQ (BLQ: below the limit of Quantitation, 0.2 ng/ml (blood plasma); 1.0 ng/g(tissue)) | Y31 (prototype) concentration, Tumor [1, 9]: BLQ (BLQ: below the limit of Quantitation, 0.2 ng/ml (blood plasma); 1.0 ng/g(tissue)) | maximum concentration of the prototype drug in blood plasma and tissues ([1]; after administration to nude mice): less than 20 ng/ml or ng/g | prototype drug 5 hours after the administration ([1]; blood plasma and tissues): not detectable | concentration at 0.5 h ([1]; liver, 0.5 h after administration, mean of 3 animals, read-out: Y31 (prototype) concentration, Liver, Mean Value): 9.72 ng/g | concentration at 2 h ([1]; liver, 2.0 h after administration, individual animals, read-out: Y31 (prototype) concentration, Liver): 12.4 ng/g | concentration at 2 h ([1]; liver, 2.0 h after administration, mean of 3 animals, read-out: Y31 (prototype) concentration, Liver, Mean Value): 14.4 ng/g | concentration at 5 h ([1]; liver, 5.0 h after administration, mean of 3 animals, read-out: Y31 (prototype) concentration, Liver, Mean Value): 1.32 ng/g | concentration at 0.5 h ([1]; plasma, 0.5 h after administration, individual animals, read-out: Y31 (prototype) concentration, Blood Plasma): 1.7 ng/mL | concentration at 0.5 h ([1]; plasma, 0.5 h after administration, mean of 3 animals, read-out: Y31 (prototype) concentration, Blood Plasma, Mean Value): 2.4 ng/mL | concentration at 2 h ([1]; plasma, 2.0 h after administration, mean of 3 animals, read-out: Y31 (prototype) concentration, Blood Plasma, Mean Value): 0.49 ng/mL | concentration at 5 h ([1]; plasma, 5.0 h after administration, individual animals, read-out: Y31 (prototype) concentration, Blood Plasma): 0.18 ng/mL | AUC0-t (ng · h/g or ng · h/ml) ([1]; Liver): 4031 ng·h/g | AUC0-t (ng · h/g or ng · h/ml) ([1]; Tumor): 2948 ng·h/g | IC50 [2]: 331 nM | Inhibition of Specific Antibody-secreting cells % [3]: 93.03% | Quantitative hemolysis OD Value ([3]; model control 0.3887, normal control 0.3036): 0.3095 | CPM Mean value ([4]; 0.1342 nM): 1338 | CPM Mean value ([4]; 0.3355 nM): 1296 | CPM Mean value ([4]; 0.8389 nM): 1202 | CPM Mean value ([4]; 2.0972 nM): 1137 | CPM Mean value ([4]; 5.2429 nM): 1131 | CPM Mean value ([4]; 13.107 nM): 1137 | CPM Mean value ([4]; 32.768 nM): 1189 | CPM Mean value ([4]; 81.9 nM): 1314 | CPM Mean value ([4]; 204.8 nM): 1090 | CPM Mean value ([4]; 512 nM): 1436 | CPM Mean value ([4]; 1280 nM): 1209 | CPM Mean value ([4]; 3200 nM): 1132 | CPM Mean value ([4]; 8000 nM): 1190 | CPM Mean value ([4]; 20000 nM): 815 | inhibition at 0.0001342 µM ([4]; Mus musculus, Lymphocyte, 0.1342 nM): 82% | inhibition at 0.0003355 µM ([4]; Mus musculus, Lymphocyte, 0.3355 nM): 82% | inhibition at 0.0008389 µM ([4]; Mus musculus, Lymphocyte, 0.8389 nM): 84% | inhibition at 0.0020972 µM ([4]; Mus musculus, Lymphocyte, 2.0972 nM): 85% | inhibition at 0.0052429 µM ([4]; Mus musculus, Lymphocyte, 5.2429 nM): 85% | inhibition at 0.013107 µM ([4]; Mus musculus, Lymphocyte, 13.107 nM): 85% | inhibition at 0.032768 µM ([4]; Mus musculus, Lymphocyte, 32.768 nM): 84% | inhibition at 0.0819 µM ([4]; Mus musculus, Lymphocyte, 81.9 nM): 82% | inhibition at 0.2048 µM ([4]; Mus musculus, Lymphocyte, 204.8 nM): 85% | inhibition at 0.512 µM ([4]; Mus musculus, Lymphocyte, 512 nM): 80% | inhibition at 1.28 µM ([4]; Mus musculus, Lymphocyte, 1280 nM): 84% | inhibition at 3.2 µM ([4]; Mus musculus, Lymphocyte, 3200 nM): 85% | inhibition at 8 µM ([4]; Mus musculus, Lymphocyte, 8000 nM): 84% | inhibition at 20 µM ([4]; Mus musculus, Lymphocyte, 20000 nM): 89%
